# Read-outs that look alike come from different tables or passages of the source.
# Legend:
# [1] = tested on: Clostridium collagenase IV; assay: Collagenase inhibitory activity (Enzcheck kit, quenched fluorescent gelatin); type: biochemical
# Method: In order to ascertain whether other benefits may be attained by the use of meroterpenes in skin care formulations, a study was conducted on the impact, if any, the presence of bakuchiol may have on collagenase: a collagenolytic enzyme responsible for much of the collagen damage associated with UV exposure and photoaging in general. Collagenase activity was measured with an Enzcheck kit from Molecular Probes (Carlsbad, CA, USA) using quenched fluorescent gelatin and Clostridium collagenase IV, a generic metalloproteinase. Test material (aqueous solutions 1000ug/ml, 100ug/ml, 10ug/ml and 1ug/ml made from 10mg/ml stock in DMSO) was incubated in the presence of collagenase substrate - quenched fluorescin-linked gelatin and in the presence of the proteolytic enzyme. Phenanthroline, a potent metalloprotease (MP) inhibitor was used as positive control at 100ug/ml. The kinetics of the release of the digested, fluorescent gelatin were measured at excitation/emission wavelengths of 485/530nm with Millipore Cytofluor 2350 microfluorometer.
# [2] = tested on: Propionibacterium acne; assay: Zone of inhibition (agar well diffusion technique); type: cell-based
# Method: (§1) Two series of tests were conducted to evaluate the bioefficacy of bakuchiol, salicylic acid and the combination of the two against Propionibacterium acne. The first evaluated the median inhibitory concentration (IC50) of each of the two actives in order to set the dosing for the second test. The second test ascertained the bioefficacy, as represented by the zone of inhibition, of each active and their combination in relation to P. acne. In both sets of tests, inoculums of 1.0 x 10^6 cfu/ml P. acne were used.
# Agar plates were prepared by first pouring sterile molten agar into petriplates to a depth of 6mm. After allowing the agar to solidify sufficiently, a well of 10 mm diameter was prepared by carefully punching and removing a 10 mm diameter plug of agar without lifting the surrounding medium. In this experiment, all cultures used were adjusted to the turbidity of 0.5 McFarland per the standard procedure and then 0.1 ml of each culture was spread plated onto the agar plates. Appropriate controls were maintained.
# Stock solutions of the actives to be tested were prepared by dissolving 1 mg of each of the actives, Sytenol A bakuchiol and salicylic acid, in separate 5 ml quantities of dimethyl sulfoxide (DMSO) at room temperature: though slight warming was employed to expedite the dissolution of the salicylic acid. These stock solutions were then diluted or mixed and diluted to produce sample solutions having the concentrations of each active as noted in Table 4 and the well of each plate filled with the appropriate solution by capillary pipette. Nothing was placed in the well of the control.
# Following inoculation and addition of the test sample to the well, each plate was then covered and incubated for 48 hours at 37 °C. Following incubation, the plates were removed and the zones of inhibition recorded and tabulated. […] When both actives were present at one-half the median inhibitory concentration, […] (Sample F); however, it seemed that the apparent ineffectiveness of the salicylic acid at this level appeared to offset or counteract the effectiveness of the bakuchiol. Consequently, at least for salicylic acid, at least one-half and preferably at least the median inhibitory concentration of the dermatological acid should be used.
# [3] = tested on: Propionibacterium acne; assay: Median inhibitory concentration (IC50) in BHI broth, reading at 610 nm; type: cell-based
# Method: as §1
# P. acne organisms were inoculated into Brain Heart Infusion (BHI) broth and incubated at 37°C for 24 hrs. Thereafter, the culture was serially diluted to a 10^-6 dilution. 100 µl aliquots of the 10^-6 dilution culture were then added to sterile test tubes containing 10 ml fresh BHI broth serial solutions of bakuchiol or salicylic acid. The serial solutions contained either active at from 0.5 to 50 µg/ml concentrations in 0.5 µg/ml increments, i.e., 0.5, 1.0, 1.5,..., 50.0 µg/ml. An inoculated control, free of either active, was also evaluated. The inoculated test tubes were then incubated at 37°C for 48 hrs. UV spectrophotometric readings were then made of each test tube at 610 nm and the values plotted.
# [4] = target: T1, human neutrophil elastase (Homo sapiens, UniProt P08246); assay: Elastase inhibitory activity (colorimetric substrate Suc-Ala-Ala-Ala-pNA, 410 nm); type: biochemical; conditions: for remaining activity at 1 µg/mL: 1 ug/ml; for remaining activity at 1 µg/mL / remaining activity at 5 µg/mL / remaining activity at 25 µg/mL: average of three runs, water = 100, read-out: Elastase Activity (% of Control); for remaining activity at 5 µg/mL: 5 ug/ml; for remaining activity at 25 µg/mL: 25 ug/ml; for elastase inhibitory effect: at the concentrations tested
# T1 construct: purchased Calbiochem of San Diego, CA, US 324681
# T1 sequence (P08246 30-247 limits assumed): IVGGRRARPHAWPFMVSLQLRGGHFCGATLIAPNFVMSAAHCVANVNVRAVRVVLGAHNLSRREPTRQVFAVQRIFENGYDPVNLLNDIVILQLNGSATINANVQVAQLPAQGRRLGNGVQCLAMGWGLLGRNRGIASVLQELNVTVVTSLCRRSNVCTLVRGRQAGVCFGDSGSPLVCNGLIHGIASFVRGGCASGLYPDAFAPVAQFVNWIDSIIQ
# [5] = Skin sensitivity: repeated occlusive patch test, nine inductive patchings and a challenge; type: in vivo; conditions: 5% dilution in corn oil, 111 subjects
# Method: Reactions were scored 24 and 48 hours after application.
Compound,Collagenase median inhibitory concentration (IC50) [1],"zone of inhibition at 0.3 µg/mL ([2]; Propionibacterium, Sample A: Bakuchiol 0.3 µg/ml) [mm]","zone of inhibition at 0.6 µg/mL ([2]; Propionibacterium, Sample B: Bakuchiol 0.6 µg/ml) [mm]","IC50 ([3]; 48 hrs at 37°C, read-out: IC50) [µg/mL]",remaining activity at 1 µg/mL [4] [%],remaining activity at 5 µg/mL [4] [%],remaining activity at 25 µg/mL [4] [%],elastase inhibitory effect [4],primary irritation [5],sensitization [5],zone of inhibition at 29 µg/mL ([2]; Propionibacterium) [mm],zone of inhibition at 58 µg/mL ([2]; Propionibacterium) [mm],Zone of Inhibition ([2]; Sample C: Salicylic acid 14.5 µg/ml),IC50 ([3]; 48 h) [µg/mL]
C=C[C@@](C)(/C=C/c1ccc(O)cc1)CCC=C(C)C [Bakuchiol],~0.1 % (w/w),35,37,0.6,31,65,77,clear elastase inhibition at all concentrations tested,NON-PRIMARY IRRITANT,NON-PRIMARY SENSITIZER,,,,
"CC1=C(/C=C/C(C)=C/C=C/C(C)=C/CO)C(C)(C)CCC1 [Retinol, reference compound]",,,,,87,138,416,no statistically significant elastase inhibitory effect,,,,,,
"O=C(O)c1ccccc1O [Salicylic acid, 2-hydroxybenzoic acid]",,,,,,,,,,,12,12,No Inhibition,29

# — patent EP2144590B1, “SKIN TREATMENT COMPOSITIONS AND METHODS” (Sytheon Ltd., priority 2007, dated 2008)
